Data taken from ChEMBL document CHEMBL1157539, “Thousands of chemical starting points for antimalarial lead identification” (Nature, 2010).

What follows are compounds tested on Plasmodium falciparum (assay: GSK_TCMDC: Inhibition of Plasmodium falciparum 3D7 in whole erythrocytes, using parasite LDH activity as an index of growth.). Settings: not given.
Assay type: functional, organism-based

SMILES	XC50 [nM]
COc1cc(/C=C/C(=O)NC2CCC(CN3CCC(c4c[nH]c5ccccc45)CC3)CC2)ccc1O (stereo not drawn)	791
O=C(/C=C/c1ccc([N+](=O)[O-])cc1)NC1CCC(CN2CCC(c3c[nH]c4ccccc34)CC2)CC1 (stereo not drawn)	835
C/C=C1\CN2CC[C@H]1C[C@H]2[C@H](O)c1ccnc2ccc(OC)cc12	219

Same assay, conditions: Plasmodium falciparum, 3D7

SMILES	XC50 [nM]
CCCC(=O)Nc1ccc(Cl)c(NC(=O)COc2cc(C)ccc2C(C)C)c1	933
O=[N+]([O-])c1cc(/C=N/Nc2nc3ccccc3[nH]2)ccc1O	954
COc1ccc2nccc(N3CCC(CCNCc4cc5c(cn4)OCCO5)CC3)c2n1	224
O=C(NCC1CCC(C(=O)NC2CCCc3ccccc32)CC1)c1ccc(O)c(-c2cccc([N+](=O)[O-])c2)c1 (stereo not drawn)	942
CCCCN1CCN(c2cc(NS(=O)(=O)c3cccc(C(=O)Nc4ccc(C(F)(F)F)cc4)c3)ccc2OC)CC1	685
CC(C)(C)c1nn(-c2ccccc2)c2[nH]c(=O)c(CNC3CCCCC3)cc12	1250
O=C(Oc1ccc(Cl)cc1C(=O)Nc1ccc([N+](=O)[O-])cc1Cl)c1ccccc1	912
O=C(Nc1ccc(Cl)cc1)N(CC1CC2CCC(C1)N2Cc1ccc(C(F)(F)F)cc1)c1ccc(N2CCOCC2)c(F)c1 (stereo not drawn)	1070
COc1ccc(CCNCc2ccc3nc(N)c(C)cc3c2)cc1	992
COc1ccc(N2CCN(c3nc(N)c4cc(OC)c(OC)cc4n3)CC2C)cc1 (stereo not drawn)	1420
O=C(NCCN1CCCCC1)c1cccc(Nc2nccc(Nc3ccc(Oc4ccccc4)cc3)n2)c1	273
O=C(/C=C/c1ccc(Cl)c(Cl)c1)N1CCC(NCc2c[nH]c3ccccc23)CC1	1070
FC(F)(F)c1ccc2[nH]ccc(=NN=Cc3ccccc3Cl)c2c1	799
O=C(CN(c1cccc(C(F)(F)F)c1)S(=O)(=O)c1ccc(Cl)cc1)NCCC(c1ccccc1)c1ccccc1	743
CC(=O)Nc1cccc(C(=O)Nc2ccc(-c3cccc(-c4nc5cccc(C)c5[nH]4)c3)cc2)c1	789
CCOc1ncccc1CN1CCC(N2CCc3cc(NC(=O)c4cc(C)on4)ccc32)C1 (stereo not drawn)	312
CC(C)CCNCc1ccc(OCc2ccccc2COc2ccc(CNCCC(C)C)cc2I)c(I)c1	425
CN1CCCN(Cc2cccc(-c3cccc(NC(=O)c4cccc(C#N)c4)c3)c2)CC1	818
NCCCOc1cnc(-c2ccccc2)c2nc(-c3nonc3N)n(CCc3ccccc3)c12	1270
NCCNS(=O)(=O)c1ccc(-c2ccnc3[nH]c(-c4ccncc4)cc23)cc1	840
CC1(C)[C@H]2CC[C@@H](CNc3nc(NCCc4c[nH]cn4)nc(NCc4cc(F)ccc4F)n3)[C@@H]1C2	311
COc1cc(/C=C/C(=O)NC2CCC(CN3CCC(c4c[nH]c5ccccc45)CC3)CC2)ccc1O (stereo not drawn)	809
O=C(c1ccc(F)cc1)N1CCOC(CCN2CCC(c3ccccc3)CC2)(c2ccc(Cl)c(Cl)c2)C1 (stereo not drawn)	749
O=C(NCCN1CCC(c2ccncc2)CC1)c1ccc(Nc2nccc(Nc3ccc(Oc4ccccc4)cc3)n2)cc1	724

SMILES	XC50 [nM]
COc1cccc(CC(=O)NC2CCN(c3ccnc4cc(Cl)ccc34)C2)c1 (stereo not drawn)	704
Cc1ccccc1Nc1nc(NCc2ccccc2)nc2ccccc12	1020
CC1CN(c2cnn(Cc3cccc(NC(=O)Nc4cccc(C(F)(F)F)c4)c3)c(=O)c2Cl)CC(C)N1 (stereo not drawn)	818
CCCCCCCCNCC(O)c1ccc(Cl)c(Cl)c1 (stereo not drawn)	819
CNC(=O)c1cnc(Nc2ccc(OCC(O)CN(C)C)cc2)nc1Nc1cccc(Br)c1 (stereo not drawn)	121
CCC1CN2CCc3cc(OC)c(OC)cc3C2CC1CC1NCCc2c1[nH]c1ccc(O)cc21 (stereo not drawn)	103
O=C(/C=C/c1ccc(Cl)c(Cl)c1)NCCCCCN1CCCC(C(=O)Nc2cccc(Cl)c2)C1 (stereo not drawn)	895
OC1(Cc2ccccc2)CCN(Cc2cccc(-c3c[nH]c4nc(NC5CCCC5)ncc34)c2)CC1	929
CC(=O)Nc1ccc(OCCCCN(Cc2ccccc2OC(F)(F)F)c2ccc(C(F)(F)F)c(C#N)c2)c(Cl)c1	529
C/C=C/COc1ccc(-c2c(C)[nH]c(C)c(Cl)c2=O)cc1	197
N=C(N)NN=Cc1ccc2c(c1)Cc1ccccc1-2	586
CCCN(CCCCCCNCCc1ccc(Cl)cc1)CCc1ccc(O)c(O)c1	943
CCCCCCN1CCCN(Cc2ccc(C(=O)Nc3cccc(CC)c3)cc2)CC1	670
COc1c(C2CCN(CCCCNC(=O)c3ccc(NC(=O)c4ccc(C#N)cc4)cc3)CC2)ccc2c1CCCC2	292
CCCN(Cc1nnc(-c2ccco2)o1)C(=O)C1CCCN(C(=O)c2ccc(Cl)cc2)C1 (stereo not drawn)	518
O=C(Cn1cc(C=C2SC(=NC3CCCC3)N(C3CCCC3)C2=O)c2ccccc21)N1CCCC1	297
Cc1nc2c(-n3cc(Cn4ccnc4)c4ccccc43)ncnc2n1-c1ccc(Cl)cc1Cl	994
COc1cc2nccc(Nc3ccc(OCc4ccccc4)cc3)c2cc1OC	203
Oc1ccc(CCNc2nc(NCc3ccccc3Oc3ccc(C(F)(F)F)cc3)nc(N3CCNCC3)n2)cc1	1160
CCN(CC)CCCN(CCCN(CC)CC)c1cc(C)nc(Nc2ccc3cc(Br)ccc3c2)n1	567
O=C1Nc2cccc3c2C1(CCCCN1CCC(c2c[nH]c4cc(C(F)(F)F)ccc24)CC1)CCC3 (stereo not drawn)	715
CC(C)CCNC(=N)Nc1ccc(OCCCOc2ccc(NC(=N)NCCC(C)C)cc2)cc1	200
Cc1ccc(NC(=O)c2c(C)noc2-c2snnc2C)cc1	1370
Cc1cc(Nc2ccc(O)cc2)nc2cc(O)ccc12	756

SMILES	XC50 [nM]
Cc1cc(N(C)C)nc(Nc2ccc(NC(=O)C(C)Oc3ccccc3)cc2)n1 (stereo not drawn)	952
COc1ccc(CNCc2ccsc2)cc1-c1ccc(OC)c(S(=O)(=O)NCCN2CCCC2)c1	917
CCc1c(CCNCCCCCCNCCc2ccc(OC)c(OC)c2CC)ccc(OC)c1OC	735
COc1ccc(-c2ccc([N+](=O)[O-])cc2C(=O)NCC(C)Oc2ccc(C(F)(F)F)cc2)cc1 (stereo not drawn)	550
COc1cc2nc(N3CCC(CNC(=O)c4cc(Br)c(Br)s4)CC3)nc(N)c2cc1OC	707
Cc1c(F)cc(C(=O)NC2CC2)cc1-c1ccc2c(cnn2S(=O)(=O)c2ccc(F)c(F)c2)c1	265
CCNc1cc(CC)nc(Nc2ccc(C)cc2)n1	848
O=C(NCc1cccc(Cl)c1)c1ccc(CNC2CCN(Cc3ccccc3)CC2)cc1	884
COc1ccc(CNCc2ccccc2)cc1-c1ccc(S(=O)(=O)NCCN2CCCC2)c(F)c1	1140
O=C(Nc1ccc(Oc2ccccc2)cc1)N(Cc1ccc(-c2cccc(CN3CCNCC3)c2)cc1)C1CCN(Cc2ccccc2)CC1	881
COc1ccc2nc(C)cc(N/N=C/c3cccc([N+](=O)[O-])c3)c2c1	725
O=C(/C=C/c1ccc([N+](=O)[O-])cc1)NC1CCC(CN2CCC(c3c[nH]c4ccccc34)CC2)CC1 (stereo not drawn)	794
COc1cccc(CNC(=O)[C@H]2CNCCN2C(=O)CCCc2ccccc2)c1	787
O=C(NCCN1CCC(c2ccncc2)CC1)c1cccc(Nc2nccc(Nc3ccc(Oc4ccccc4)cc3)n2)c1	168
CC(Cc1ccc(C(C)(C)C)cc1)NCC(O)c1ccccc1 (stereo not drawn)	1810
COc1ccc2c(c1C1CCN(CCCCNC(=O)c3ccc(NC(=O)c4ccc(Cl)cc4)cc3)CC1)CCCC2	341
CC1CN(Cc2cccc(F)c2)CCN1c1ccc(NC(=O)c2ccc(F)cc2)cc1 (stereo not drawn)	580
CNC(=O)Cc1ccc(C(=O)Nc2cccc(-c3ccc(-c4nc5cccc(C)c5[nH]4)s3)c2)cc1	632
CC(CN(C)C)C(=O)Nc1ccc(-c2ccc(-c3nc4cc(F)ccc4[nH]3)cc2)cc1 (stereo not drawn)	773
CC(C)(C)c1ccc(CN2CCC(CNC(=O)c3cc(-c4cccc(C(F)(F)F)c4)cs3)C2)cc1 (stereo not drawn)	1030
CN(C)c1ccnc2ccc(NC(=O)Nc3ccnc4ccccc34)cc12	133
CNC(=O)c1cnc(Nc2ccc(OCC(O)CN(C)C)cc2)nc1Nc1cccc([N+](=O)[O-])c1 (stereo not drawn)	617
CC(C)c1sc(-c2ccc(C(C)(C)C)cc2)nc1C(=O)NCCCN1CCCC1=O	672
CN1CCN(CCCNCc2cccc(-c3ccc(CNCCc4ccccc4)cc3)c2)CC1	781

SMILES	XC50 [nM]
Cc1cccc2nc(-c3cccc(-c4ccc(CN5CCC(C(N)=O)CC5)cc4)c3)[nH]c12	853
Cc1nc(C)c(-c2ccc(Oc3ccc(OC(F)(F)F)cc3)cc2)c(OC(=O)N(CCNC(C)C)C(C)C)c1Br	171
CCCCCc1cc(O)c2c(c1)OC(C)(C)CC2C1=CCN(Cc2ccccc2)CC1 (stereo not drawn)	767
CCOc1ccc(C(=O)Nc2cc(Br)c3c(c2)CNCC3)cc1C#N	765
CN(C)C(=O)CN1CCN(c2ncnc(N3CCc4c([nH]c5ccccc45)[C@@H]3c3ccc4c(c3)CCO4)n2)CC1	871
Cc1cc(N[C@@H](CC(C)C)C(=O)NCCc2ccccc2)nc(NCc2ccccc2C)n1	906
O=C(N[C@@H](CC1CCCCC1)C(=O)NCCN1CCOCC1)c1ccc(O)c(-c2ccc(Cl)c(Cl)c2)c1	181
CNCCNCc1cccc(-c2ccc(-c3nc4cccc(C)c4[nH]3)s2)c1	953
CCN(CC)CCN(Cc1ccc(-c2ccc(C(F)(F)F)cc2)cc1)C(=O)Cn1cc(Cc2cnn(C)c2)c(=O)nc1/C=C/c1ccc(F)cc1	1060
CC(Cc1ccc(SC(C)(C)C)cc1)NCC(O)c1cccc(Cl)c1 (stereo not drawn)	317
COc1ccc(OCC(O)CN(Cc2ccccc2OC)C(=O)Nc2ccc(Br)cc2)cc1 (stereo not drawn)	748
CCOCn1c(-c2ccccc2)cc2c3c(N)nc(N)nc3ccc21	186
CCN1CCN(c2ccc(NC(=O)c3cc4c(C)nn(-c5ccccc5)c4s3)cc2C)CC1	757
CCCNCc1ccc(-c2ccc(CN(CCOC)C(=O)c3cnc(C)cn3)cc2)nc1	1250
O=C(NC1CC1)c1cnc(N2CCC(c3ccccc3)CC2)c(Cl)c1	851
CC(Cc1ccc(CN(CC(N)=O)Cc2ccc(CC(C)NCCc3cccc(Cl)c3)cc2)cc1)NCCc1cccc(Cl)c1 (stereo not drawn)	665
CCCCCCc1cc(O)c2c3c(c(=O)oc2c1)CCN(C)C3	671
c1ccc(-n2cncn2)cc1	591
Oc1c(Cl)cc(Nc2nccc(Nc3ccc(Oc4ccccc4)cc3)n2)cc1Cl	786
COc1ccc(CNC2CCN(C)CC2)cc1-c1ccc(OC)c(S(=O)(=O)NCc2ccccc2)c1	951
COc1cc(NCCCNCc2cn(Cc3cc(Br)cc(Br)c3)c3ccccc23)nc2ccccc12	185
Fc1ccc2[nH]c(-c3ccc(-c4ccc(CN5CCC(CCN6CCCCC6)CC5)cc4)s3)nc2c1	142
NC(=O)c1ccc(NCC(=O)Nc2cccc(-c3cccc(-c4nc5cc(C(F)(F)F)ccc5[nH]4)c3)c2)cc1	270
